Measurements from ChEMBL document CHEMBL1128160, “An attempt to synthesize prostanoid thromboxane A2 antagonists with an additional prostacyclin like quality” (Bioorg Med Chem Lett, 1995).

How the values were obtained:
Homo sapiens = species on record: Homo sapiens; experiment: Inhibition of ADP-induced aggregation of human platelet rich plasma; type: functional
[1] = biological target: T1, Thromboxane A2 receptor (Homo sapiens) (UniProt P21731); experiment: Competition factor was evaluated for Thromboxane A2 receptor binding affinity CF = (IC50-test)/(IC50-standard)
T1 sequence (whole entry): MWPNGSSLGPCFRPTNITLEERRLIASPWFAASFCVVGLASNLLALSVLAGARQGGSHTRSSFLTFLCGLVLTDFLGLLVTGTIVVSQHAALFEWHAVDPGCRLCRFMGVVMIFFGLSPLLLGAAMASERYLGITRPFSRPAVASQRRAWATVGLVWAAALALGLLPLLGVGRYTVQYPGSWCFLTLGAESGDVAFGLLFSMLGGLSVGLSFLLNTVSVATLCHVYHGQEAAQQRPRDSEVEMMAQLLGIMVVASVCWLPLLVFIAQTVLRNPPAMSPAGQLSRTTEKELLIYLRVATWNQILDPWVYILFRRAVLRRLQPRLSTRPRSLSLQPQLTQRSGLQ

[2] = biological target: T1, Thromboxane A2 receptor (Homo sapiens); experiment: Competition factor for Thromboxane A2 receptor binding affinity CF = (IC50-test)/(IC50-standard)
[3] = biological target: T1, Thromboxane A2 receptor (Homo sapiens); experiment: Competition factor was evaluated for Thromboxane A2 receptor binding affinity CF = (IC50-test)/(IC50-standard) by using [3H]iloprost agonist at 10 nM

| IC50 (Homo sapiens) [nM] | CF [1] | CF [2] | CF [3] | Structure (SMILES) |
| --- | --- | --- | --- | --- |
| 1700 | 0.62 | – | – | O=C(O)CCC/C=C\C[C@H]1/C(=N/OCC2CCCCC2)CC[C@@H]1NS(=O)(=O)c1ccc(Cl)cc1 |
| 1800 | – | 0.5 | – | O=C(O)CCC/C=C\C[C@H]1/C(=N/OCC2CCCCC2)CC[C@@H]1NS(=O)(=O)c1ccc(F)cc1 |
| 670 | – | 6.5 | – | Cc1ccc(S(=O)(=O)N[C@H]2CCC(=O)[C@@H]2C/C=C\CCCC(=O)O)cc1 |
| 500 | – | 6.4 | – | O=C(O)CCC/C=C\C[C@H]1C(=O)CC[C@@H]1NS(=O)(=O)c1ccc(F)cc1 |
| 5800 | – | 340 | – | Cc1ccc(S(=O)(=O)N[C@@H]2CC[C@@H](O)[C@H]2C/C=C\CCCC(=O)O)cc1 |
| 1800 | – | 31 | – | O=C(O)CC/C=C\C[C@@H]1[C@@H](NS(=O)(=O)c2ccc(Cl)cc2)CC[C@@H]1O |
| 640 | – | 2.6 | – | O=C(O)CCC/C=C\C[C@H]1C(=O)CC[C@@H]1NS(=O)(=O)c1ccc(Cl)cc1 |
| 190 | – | 0.68 | – | O=C(O)CCC/C=C\C[C@@H]1[C@@H](NS(=O)(=O)c2ccc(Cl)cc2)CC[C@@H]1O |
| 200 | – | 0.07 | – | O=C(O)CCC/C=C\C[C@H]1/C(=N/OCc2ccc(C(F)(F)F)cc2)CC[C@@H]1NS(=O)(=O)c1ccc(Cl)cc1 |
| 5600 | – | 4.5 | – | Cc1ccc(S(=O)(=O)N[C@H]2CC/C(=N\OC(c3ccccc3)c3ccccc3)[C@@H]2C/C=C\CCCC(=O)O)cc1 |
| 500 | – | 7 | – | Cc1ccc(S(=O)(=O)N[C@H]2CC[C@H](O)[C@@H]2C/C=C\CCCC(=O)O)cc1 |
| 640 | – | 2.1 | – | O=C(O)CCC/C=C\C[C@@H]1[C@@H](NS(=O)(=O)c2ccc(F)cc2)CC[C@@H]1O |
| 180 | – | < 1 | – | Cc1ccc(S(=O)(=O)N[C@H]2CC/C(=N\OCc3ccc(C(F)(F)F)cc3)[C@@H]2C/C=C\CCCC(=O)O)cc1 |
| 600 | – | 1 | – | Cc1ccc(S(=O)(=O)N[C@H]2CC/C(=N\OCC3CCCCC3)[C@@H]2C/C=C\CCCC(=O)O)cc1 |
| 1600 | – | 200 | – | O=C(O)CC/C=C\C[C@@H]1[C@@H](NS(=O)(=O)c2ccc(F)cc2)CC[C@@H]1O |
| 6000 | – | 26 | – | O=C(O)CCC/C=C\C[C@@H]1[C@H](O)CC[C@H]1NS(=O)(=O)c1ccc(F)cc1 |
| 2500 | – | 135 | – | Cc1ccc(S(=O)(=O)N[C@H]2CC[C@H](O)[C@@H]2C/C=C\CCC(=O)O)cc1 |
| 17000 | – | 4 | – | O=C(O)CCC/C=C\C[C@H]1/C(=N/OC(c2ccccc2)c2ccccc2)CC[C@@H]1NS(=O)(=O)c1ccc(Cl)cc1 |
| 620 | – | 0.13 | – | O=C(O)CCC/C=C\C[C@H]1/C(=N/OCc2ccc(C(F)(F)F)cc2)CC[C@@H]1NS(=O)(=O)c1ccc(F)cc1 |
| 800 | – | 175 | 25 | C[C@@H]1CC/C(=N\OC(c2ccccc2)c2ccccc2)[C@H]1C/C=C\CCCC(=O)O |
| 17000 | – | 6.9 | – | O=C(O)CCC/C=C\C[C@H]1/C(=N/OC(c2ccccc2)c2ccccc2)CC[C@@H]1NS(=O)(=O)c1ccc(F)cc1 |
| 2200 | – | 85 | – | O=C(O)CCC/C=C\C[C@@H]1[C@H](O)CC[C@H]1NS(=O)(=O)c1ccc(Cl)cc1 |
